Holding throughout (assay type): biochemical
Experiment [1] addresses T1, AR-NTD (Homo sapiens, UniProt P10275).
T1 construct: a domain of the androgen receptor localised at its N-terminus, amino acids 1-558
T1 sequence (P10275 1-558): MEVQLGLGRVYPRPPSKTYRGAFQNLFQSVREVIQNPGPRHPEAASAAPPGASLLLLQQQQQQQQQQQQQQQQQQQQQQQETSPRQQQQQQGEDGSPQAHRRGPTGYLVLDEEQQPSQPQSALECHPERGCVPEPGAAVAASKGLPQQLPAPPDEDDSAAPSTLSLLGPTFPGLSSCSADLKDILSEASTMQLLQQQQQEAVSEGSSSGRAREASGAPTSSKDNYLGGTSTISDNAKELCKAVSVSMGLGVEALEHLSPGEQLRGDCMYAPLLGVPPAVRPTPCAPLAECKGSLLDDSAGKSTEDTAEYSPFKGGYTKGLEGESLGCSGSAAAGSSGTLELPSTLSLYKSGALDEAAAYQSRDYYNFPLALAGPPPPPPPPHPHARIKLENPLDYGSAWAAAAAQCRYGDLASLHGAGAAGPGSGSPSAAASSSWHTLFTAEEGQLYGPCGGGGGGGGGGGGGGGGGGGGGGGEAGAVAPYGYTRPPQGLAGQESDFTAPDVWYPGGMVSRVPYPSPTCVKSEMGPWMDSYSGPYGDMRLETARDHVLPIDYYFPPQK
The experiment can be described thus: Screening with the condensation (TSA) assay, percentage of shift versus reference shift. The conditions noted are these: screening concentration 100 μM; negative reference DMSO; mean of 3 measurements. The protocol:
FIG. 7. […] First two bars show data points corresponding to the controls that are used to calculate the activity: Negative reference (DMSO), Positive reference (EPI-001 at 200 μM). […] Mean values of 3 measurements and the standard deviation are plotted.
In this sense, in FIG. 7 the first two bars show data points corresponding to the controls that are used to calculate the activity: • Negative reference—DMSO • Positive reference—EPI-001 at 200 μM
Briefly, in order to quantitatively rank the tested compounds with regards to their efficacy to enhance the AR-NTD condensation in vitro and compare it to that of EPI-001, we measured the cloud point temperature (Tc) of each of the samples at constant protein concentration (100 μM). Then, we calculated the percentage of shift caused by the compound in comparison to the reference shift, the one caused by 200 μM EPI-001. Next, we plotted the normalised shift versus the compound concentration.

The target of experiment [2] is T1, AR-NTD. The experiment can be described thus: Screening with the condensation assay, amplitude of the absorbance as parameter. The conditions noted are these: screening concentration 100 μM; references DMSO and EPI-001 at 200 μM; mean of 3 measurements. The protocol: FIG. 9. Results of screening for molecules using the condensation assay with amplitude of the absorbance as a parameter determining the activity of tested molecules. First two bars show data points corresponding to the controls that are used to calculate the activity: negative reference (DMSO), positive reference (EPI-001 at 200 μM). The rest of the bars corresponds to the activity of three screened molecules at a screening concentration 100 μM. […] Mean values of 3 measurements and the standard deviation are plotted.
Please note that, with reference to this aspect of the invention, the inventors have shown that this parameter could also be used to select hits (see FIG. 9).

The target of experiment [3] is T1, AR-NTD. In words: Temperature-dependent turbidity shift assay (TSA), critical temperature Tc. The conditions noted are these: 500 mM NaCl. How it is done: FIG. 6. a) Apparent absorbance (at λ=350 nm) measurement at increasing temperatures of 30 μM ARNTD in 20 mM Hepes 7.4, 500 mM NaCl, 2 mM TCEP buffer in the absence (grey) and presence of 5 eq of EPI-001 (red) or BADGE (green). Dashed lines indicate condensation onset and calculated Tc values are depicted in the insert. b) Tc obtained using the TSA assay of AR-NTD at different concentrations in 20 mM Hepes 7.4, 500 mM NaCl, 2 mM TCEP buffer in the absence (grey) and presence of 5 eq of EPI-001 (red) or BADGE (green). Mean values of 3 independent measurements and the standard deviation are plotted.
To quantify the effects of EPI-001 on the AR-NTD phase separation, we implemented a temperature-dependent turbidity shift assay (TSA). In this assay we measure the sample turbidity as a reporter of condensation and determine the temperature at which a given sample demixes, the Critical Temperature. When droplets are formed, they scatter light and cause an abrupt increase in turbidity. Therefore, values above 0 absorbance units (AU) in the TSA assay indicate condensation. We measure turbidity as the apparent absorbance at a wavelength in which the absorption of the other components in the sample is minimal, in our case 350 nm. Addition of 5 equivalents (eq) of EPI-001 to a 30 μM AR-NTD and 500 mM NaCl sample lowered the Tc of the AR-NTD by 10° C. (FIG. 5a). […]

Take `CC(C)(c1ccc(OCC2CO2)cc1)c1ccc(OCC2CO2)cc1` (stereo not drawn) [BADGE]: the “hit classification by activity (percentage of Tc shift relative to 200 μM EPI-001), cut-off 25%” value on AR-NTD [1] is recorded as “non-hit”. Further, the “hit classification by activity based on amplitude of the absorbance, cut-off 25%” value on AR-NTD [2] is “inactive”. Further, the “enhancement of AR-NTD condensation at all protein concentrations tested (left arm of phase diagram)” value on AR-NTD [3] (5 eq of compound, various AR-NTD concentrations) is reported as “not”. The “lowering of the Tc of the AR-NTD” value on AR-NTD [3] (5 equivalents of compound, 30 μM AR-NTD, absorbance at 350 nm) is 3 °C.

For the compound `CC(C)(c1ccc(OC[C@H](O)CNS(C)(=O)=O)cc1)c1cc(Cl)c(OC[C@H](O)CCl)c(Cl)c1` [EPI-7170], the “hit classification by activity (percentage of Tc shift relative to 200 μM EPI-001), cut-off 25%” value at AR-NTD [1] was “hits”. Moreover, on AR-NTD [2], the “hit classification by activity based on amplitude of the absorbance, cut-off 25%” value is recorded as “hits”.

The values are drawn from US20240192233A1, “DRUG DISCOVERY ASSAY TO SCREEN FOR COMPOUNDS” (FUNDACIÓ INSTITUT DE RECERCA BIOMÈDICA (IRB BARCELONA), priority 2021, published 2024).
